Assay results published in patent publication US20120283193A1, “MANIPULATION OF BRAIN IN A CIRCUIT-SPECIFIC MANNER” (priority 2009, published 2012).
Like-named read-outs stand apart in the source and are kept apart here.

Assays:
VSC neurons = assay type: in vivo, Xenopus
Description: (§1) Neuropharmacology. […] For selective ablation of VSCDA neurons, MPTP was bath-applied in the dark to larvae for 8 h at stage 41. 100 mM deprenyl (Sigma) was bath-applied to inhibit monoamine oxidase.
Immunocytochemistry. The number of neurons in the VSC was quantified by counting the cells within the core and the surrounding annular region in sections of the diencephalon.
A pharmacological approach to test the involvement of electrical activity and calcium signaling was then performed. […] agarose beads loaded with calcein acetoxymethylester (calcein-AM) tracer were implanted in the roof of the hypothalamus above the VSC to evaluate the time course of drug delivery.

OB interneurons = test: Neurotransmitter expression in olfactory bulb interneurons after kin/non-kin odorant exposure; assay type: in vivo, Xenopus laevis
Xenopus larvae = test: Skin pigmentation adaptation to illumination/background in larvae; assay type: in vivo; details: for light-dependent changes in pigmentation (reduction in pigmented area) driven by newly induced TH/NPY annular neurons: MPTP-light and control larvae, sulpiride 10 nM during 30-min exposure to white background (FIG. 6c)
Description: Illumination experiments. The optimal condition for altering skin pigmentation and numbers of TH neurons were determined by raising larvae under two illumination conditions. In the first, larvae were placed on black, grey or white backgrounds (corresponding to N2.25, N7.25 or N9.5 on the Munsell neutral value scale of a monochromatic colour wheel) with constant illumination (331 lux (lx)). In the second, larvae on a white, grey or black background were exposed to constant illumination (6,560 lx, measured with a light meter (Sper Scientific)-equivalent to shady illumination on a sunny day), or to constant dark or to 12 h light/12 h dark. […] For some tests of the functional significance of newly TH neurons, animals were raised under different light/background conditions and a conditioning step of 30 min light/white background exposure was imposed to achieve similar levels of skin pigmentation before comparing light or dark adaptation between these groups.
as §1

For NC1=N[C@H](O)[C@H]2[C@H]3O[C@]4(O)O[C@@H]([C@@H](O)[C@@]2(N1)[C@@H]4O)[C@]3(O)CO [TTX, tetrodotoxin], which “number of TH neurons or NPY/TH annular neurons in the VSC” value (VSC neurons; in vivo) is on record?
Its value is “no increase”.

And the “changes in NT phenotype (dopamine/GABA coexpression) after kin or nonkin exposure” value (OB interneurons; in vivo)?
Its value is “prevents”.

Which “effect on pigmentation behaviour” value (Xenopus larvae; D1 receptor agonist and antagonist, opposite effect to the D2 ligands) does the source give for Oc1cc2c(cc1O)C(c1ccccc1)CNCC2 (centres unmarked) [SKF-38393] here?
The value was “darkening”.

How did the “light-dependent changes in pigmentation (reduction in pigmented area) driven by newly induced TH/NPY annular neurons” value (Xenopus larvae) turn out when CCN1CCCC1CNC(=O)c1cc(S(N)(=O)=O)ccc1OC (centres unmarked) [sulpiride] was run?
The value was “blocked”.

What about the “light-dependent changes in pigmentation (reduction in pigmented area) driven by newly induced TH/NPY annular neurons” value (Xenopus larvae; listed as Sulpiride) of the same compound?
Its value is “blocks”.

What about the “changes in skin pigmentation in response to altered illumination” value (Xenopus larvae; stage-42 larvae raised in the dark, 10 nM sulpiride for 30 min (FIG. 1c)) of the same compound?
The value was “blocked”.

And the “number of TH VSC neurons” value (VSC neurons; sulpiride-treated larvae)?
The value was “not affected”.

With CN1CC=C(c2ccccc2)CC1 [MPTP, 1-methyl-4-phenyl-1,2,3,6-tetrahydropyridine] as the compound, how does the “changes in pigmentation after 30 min exposure to light / white background” value (Xenopus larvae; dark-raised, MPTP-treated larvae (MPTP-dark group, FIG. 6c)) read?
Its value is “abolished”.

For CC(=O)OCOC(=O)CN(CC(=O)OCOC(C)=O)c1ccccc1OCCOc1ccccc1N(CC(=O)OCOC(C)=O)CC(=O)OCOC(C)=O [BAPTA-AM, 1,2-bis-(o-aminophenoxy)-ethane-N,N,N9,N9-tetraacetic acid, tetraacetoxymethyl ester], which “number of TH neurons or NPY/TH annular neurons in the VSC” value (VSC neurons; drug-loaded agarose beads implanted above the VSC, 2 h white light following 24 h in the dark (FIG. 4b, c)) is on record?
The value was “no increase”.

And the “NPY/TH colocalization in VSC sections of bead-implanted larvae” value (VSC neurons; larvae exposed to 2 h light, versus white-adapted control and calcein bead (FIG. 4B))?
The value was “absent”.

What about the “changes in NT phenotype (dopamine/GABA coexpression) after kin or nonkin exposure” value (OB interneurons; local delivery, stage 45 larvae, 48 hr odorant exposure) of the same compound?
The value was “prevents”.
